Reference: US20110212047A1, “Polymer Therapy for the Treatment of Chronic Microvascular Diseases” (Synth Rx, Inc., priority 2007, published 2011)

Test system: bilateral neovascular AMD with occult choroidal neovascularization
Assay: Treatment of a patient with bilateral neovascular AMD with occult choroidal neovascularization
Assay type: in vivo, human
Conditions: after intravitreal injection to both eyes

## pegaptanib
20/80 before
  vision, left eye: 20/100
CF at six feet before
  vision, right eye: CF at six feet
